According to patent US8729095B2, “3-(biaryloxy)propionic acid derivatives for prevention and/or treatment of thromboembolic diseases” (Daiichi Sankyo Company, Limited, priority 2009, dated 2014):

Key:
[1] = test system: platelet aggregation induced by ADP in human platelet-rich plasma (PRP); experiment: Human platelet aggregation inhibitory activity (ADP-induced, platelet-rich plasma); type: cell-based; details: 8 min, ADP final concentration 20 μM, maximum aggregation rate, measured for 8 minutes
Protocol: A blood collecting syringe containing 1/10 volume of a 3.8% sodium citrate solution was used to collect blood from radial vein of a healthy person. The collected blood was centrifuged at 180×g at room temperature for 10 minutes to separate the supernatant (platelet-rich plasma; PRP). After PRP was separately collected, the remaining blood was centrifuged at 1,600×g for 10 minutes to separately collect platelet-poor plasma (PPP) of the upper layer. PRP was left at rest at 16° C. for 30 minutes, and subsequently used for measurement.
200 μL of the separately collected PRP was dispensed into a cuvette for the aggregation test, and 1 μL of dimethylsulfoxide (control) or a test compound solution diluted with dimethylsulfoxide was added, followed by incubation at 37° C. for 2 minutes. Subsequently, 2 μL of 2 mM ADP was added (final concentration 20 μM) to induce platelet aggregation.
Platelet aggregation was measured for 8 minutes using an aggregometer (MCM HEMA TRACER 313M; MC MEDICAL, INC.). With the light transmittance rate of PPP being set as an aggregation value of 100%, the maximum aggregation rate was determined for each concentration of the test compounds to calculate IC50 values.

[2] = test system: platelet aggregation induced by ADP in rat platelet-rich plasma (PRP); experiment: Platelet aggregation inhibitory activity during oral administration in a rat (ex vivo, ADP-induced); details: male Wistar rats, 1 mg/10 ml/kg orally, blood collected 4 hours after administration, ADP final concentration 3 μM, vs. control PRP (solvent only), read-out: Inhibition Rates (%)
Protocol: 1 mg/10 ml/kg of the test compound was orally administered by gavage to male rats (Slc: Wistar, age 8 to 9 weeks) that had been fasted overnight. 4 hours after administration, a syringe containing 1/10 volume of a 3.13% sodium citrate solution was used to collect blood from the abdominal aorta of a rat under anesthesia. From the collected blood, platelet-rich plasma (PRP) and platelet-poor plasma (PPP) were prepared according to the method described in the method for measuring human platelet aggregation inhibitory activity. PRP was left at rest at 16° C. for 30 minutes, and subsequently used for measurement.
200 μL of the separately collected PRP was dispensed into a cuvette for the aggregation test, followed by incubation at 37° C. for 2 minutes, and subsequently 2 μL of 0.3 mM ADP was added (final concentration 3 μM) to induce platelet aggregation.
Platelet aggregation was measured for 8 minutes using an aggregometer (MCM HEMA TRACER 313M; MC MEDICAL, INC.). With the light transmittance rate of PPP being set as an aggregation value of 100%, the maximum aggregation rate of PRP was determined, and compared with the maximum aggregation rate of control PRP (rat administered only with a solvent) to calculate inhibition rates.

C[C@H](CC(=O)O)Oc1ccccc1-c1ccc(C(=O)N2CCC(N3C(=O)C(C)(C)Cc4ncc(Cl)cc43)CC2)c(F)c1 [Example 5, (3R)-3-[(4′-{[4-(7-Chloro-3,3-dimethyl-2-oxo-3,4-dihydro-1,5-naphthyridin-1(2H)-yl)piperidin-1-yl]carbonyl}-3′-fluorobiphenyl-2-yl)oxy]butanoic acid]
IC50 [1]: 3.4 µM
inhibition at 1 mg/kg [2]: 70%

C[C@H](CC(=O)O)Oc1ccccc1-c1ccc(C(=O)N2CCC(N3C(=O)C(C)(C)Oc4ncc(Cl)cc43)CC2)c(Cl)c1 [Example 19, (3R)-3-[(3′-Chloro-4′-{[4-(7-chloro-3,3-dimethyl-2-oxo-2,3-dihydro-1H-pyrido[2,3-b][1,4]oxazin-1-yl)piperidin-1-yl]carbonyl}biphenyl-2-yl)oxy]butanoic acid]
IC50 [1]: 7.5 µM
inhibition at 1 mg/kg [2]: 64%

C[C@@H](COc1ccccc1-c1ccc(C(=O)N2CCC(N3C(=O)C(C)(C)Oc4ncc(Cl)cc43)CC2)c(F)c1)C(=O)O [Example 25, (2S)-3-[(4′-{[4-(7-Chloro-3,3-dimethyl-2-oxo-2,3-dihydro-1H-pyrido[2,3-b][1,4]oxazin-1-yl)piperidin-1-yl]carbonyl}-3′-fluorobiphenyl-2-yl)oxy]-2-methylpropanoic acid]
IC50 [1]: 5.1 µM
inhibition at 1 mg/kg [2]: 46%

C[C@H](CC(=O)O)Oc1cc(F)ccc1-c1ccc(C(=O)N2CCC(N3C(=O)C(C)(C)Oc4ncc(Cl)cc43)CC2)c(F)c1 [Example 35, (3R)-3-[(4′-{[4-(7-Chloro-3,3-dimethyl-2-oxo-2,3-dihydro-1H-pyrido[2,3-b][1,4]oxazin-1-yl)piperidin-1-yl]carbonyl}-3′,4-difluorobiphenyl-2-yl)oxy]butanoic acid]
IC50 [1]: 3.6 µM
inhibition at 1 mg/kg [2]: 96%

C[C@@H]1Oc2ncc(Cl)cc2N(C2CCN(C(=O)c3ccc(-c4cc(F)ccc4OC[C@H](C)C(=O)O)cc3F)CC2)C1=O [Example 26, (2S)-3-{[4′-({4-[(3S)-7-Chloro-3-methyl-2-oxo-2,3-dihydro-1H-pyrido[2,3-b][1,4]oxazin-1-yl]piperidin-1-yl}carbonyl)-3′,5-difluorobiphenyl-2-yl]oxy}-2-methylpropanoic acid]
IC50 [1]: 7.3 µM
inhibition at 1 mg/kg [2]: 55%

CC[C@H](CC(=O)O)Oc1ccccc1-c1cnc(C(=O)N2CCC(N3C(=O)C(C)(C)Oc4ncc(Cl)cc43)CC2)c(F)c1 [Example 41, (3R)-3-[2-(6-{[4-(7-Chloro-3,3-dimethyl-2-oxo-2,3-dihydro-1H-pyrido[2,3-b][1,4]oxazin-1-yl)piperidin-1-yl]carbonyl}-5-fluoropyridin-3-yl)phenoxy]pentanoic acid]
IC50 [1]: 5.7 µM
inhibition at 1 mg/kg [2]: 56%

C[C@H](CC(=O)O)Oc1ccc(F)cc1-c1ccc(C(=O)N2CCC(N3C(=O)[C@H](C)Oc4ncc(Cl)cc43)CC2)c(F)c1 [Example 29, (3R)-3-{[4′-({4-[(3S)-7-Chloro-3-methyl-2-oxo-2,3-dihydro-1H-pyrido[2,3-b][1,4]oxazin-1-yl]piperidin-1-yl}carbonyl)-3′,5-difluorobiphenyl-2-yl]oxy}butanoic acid]
IC50 [1]: 4.3 µM
inhibition at 1 mg/kg [2]: 75%

C[C@H](CC(=O)O)Oc1ccccc1-c1ccc(C(=O)N2CCC(N3C(=O)C(C)(C)Oc4ncc(Cl)cc43)CC2)c(N)c1 [Example 50, (3R)-3-[(3′-Amino-4′-{[4-(7-chloro-3,3-dimethyl-2-oxo-2,3-dihydro-1H-pyrido[2,3-b][1,4]oxazin-1-yl)piperidin-1-yl]carbonyl}biphenyl-2-yl)oxy]butanoic acid]
IC50 [1]: 0.87 µM
inhibition at 1 mg/kg [2]: 53%

C[C@@H](COc1ccc(F)cc1-c1ccc(C(=O)N2CCC(N3C(=O)C(C)(C)Oc4ncc(Cl)cc43)CC2)c(F)c1)C(=O)O [Example 27, (2S)-3-[(4′-{[4-(7-Chloro-3,3-dimethyl-2-oxo-2,3-dihydro-1H-pyrido[2,3-b][1,4]oxazin-1-yl)piperidin-1-yl]carbonyl}-3′,5-difluorobiphenyl-2-yl)oxy]-2-methylpropanoic acid]
IC50 [1]: 6.5 µM
inhibition at 1 mg/kg [2]: 36%

C[C@H](CC(=O)O)Oc1ccccc1-c1ccc(C(=O)N2CCC(N3C(=O)[C@H](C)Oc4ncc(Cl)cc43)CC2)c(F)c1 [Example 28, (3R)-3-{[4′-({4-[(3S)-7-Chloro-3-methyl-2-oxo-2,3-dihydro-1H-pyrido[2,3-b][1,4]oxazin-1-yl]piperidin-1-yl}carbonyl)-3′-fluorobiphenyl-2-yl]oxy}butanoic acid]
IC50 [1]: 1.8 µM
inhibition at 1 mg/kg [2]: 74%

C[C@@H]1Oc2ncc(Cl)cc2N(C2CCN(C(=O)c3ccc(-c4ccccc4OC[C@H](C)C(=O)O)cc3F)CC2)C1=O [Example 24, (2S)-3-{[4′-({4-[(3S)-7-Chloro-3-methyl-2-oxo-2,3-dihydro-1H-pyrido[2,3-b][1,4]oxazin-1-yl]piperidin-1-yl}carbonyl)-3′-fluorobiphenyl-2-yl]oxy}-2-methylpropanoic acid]
IC50 [1]: 3.1 µM
inhibition at 1 mg/kg [2]: 44%

C[C@H](CC(=O)O)Oc1ccccc1-c1ccc(C(=O)N2CCC(N3C(=O)C(C)(C)Oc4ncc(C#N)cc43)CC2)c(F)c1 [Example 52, (3R)-3-[(4′-{[4-(7-Cyano-3,3-dimethyl-2-oxo-2,3-dihydro-1H-pyrido[2,3-b][1,4]oxazin-1-yl)piperidin-1-yl]carbonyl}-3′-fluorobiphenyl-2-yl)oxy]butanoic acid]
IC50 [1]: 2.3 µM
inhibition at 1 mg/kg [2]: 71%

C[C@@H](Oc1ccccc1-c1ccc(C(=O)N2CCC(N3C(=O)C(C)(C)Oc4ncc(Cl)cc43)CC2)c(F)c1)[C@@H](C)C(=O)O [Example 9, (2R,3R)-3-[(4′-{[4-(7-Chloro-3,3-dimethyl-2-oxo-2,3-dihydro-1H-pyrido[2,3-b][1,4]oxazin-1-yl)piperidin-1-yl]carbonyl}-3′-fluorobiphenyl-2-yl)oxy]-2-methylbutanoic acid]
IC50 [1]: 2.1 µM
inhibition at 1 mg/kg [2]: 52%

C[C@@H](COc1ccccc1-c1ccc(C(=O)N2CCC(N3C(=O)C(C)(C)Cc4ncc(Cl)cc43)CC2)c(F)c1)C(=O)O [Example 11, (2S)-3-[(4′-{[4-(7-Chloro-3,3-dimethyl-2-oxo-3,4-dihydro-1,5-naphthyridin-1(2H)-yl)piperidin-1-yl]carbonyl}-3′-fluorobiphenyl-2-yl)oxy]-2-methylpropanoic acid]
IC50 [1]: 6.1 µM
inhibition at 1 mg/kg [2]: 45%

Cc1cc(-c2cc(F)ccc2O[C@H](C)CC(=O)O)ccc1C(=O)N1CCC(N2C(=O)C(C)(C)Cc3ncc(Cl)cc32)CC1 [Example 45, (3R)-3-[(4′-{[4-(7-Chloro-3,3-dimethyl-2-oxo-3,4-dihydro-1,5-naphthyridin-1(2H)-yl)piperidin-1-yl]carbonyl}-5-fluoro-3′-methylbiphenyl-2-yl)oxy]butanoic acid]
IC50 [1]: 11 µM
inhibition at 1 mg/kg [2]: 51%

CCc1cnc2c(c1)N(C1CCN(C(=O)c3ccc(-c4ccccc4O[C@H](C)CC(=O)O)cc3F)CC1)C(=O)C(C)(C)O2 [Example 53, (3R)-3-[(4′-{[4-(7-Ethyl-3,3-dimethyl-2-oxo-2,3-dihydro-1H-pyrido[2,3-b][1,4]oxazin-1-yl)piperidin-1-yl]carbonyl}-3′-fluorobiphenyl-2-yl)oxy]butanoic acid]
IC50 [1]: 6.4 µM
inhibition at 1 mg/kg [2]: 44%

C[C@H](CC(=O)O)Oc1ccccc1-c1cc(F)c(C(=O)N2CCC(N3C(=O)C(C)(C)Oc4ncc(Cl)cc43)CC2)cc1F [Example 34, (3R)-3-[(4′-{[4-(7-Chloro-3,3-dimethyl-2-oxo-2,3-dihydro-1H-pyrido[2,3-b][1,4]oxazin-1-yl)piperidin-1-yl]carbonyl}-2′,5′-difluorobiphenyl-2-yl)oxy]butanoic acid]
IC50 [1]: 2.3 µM
inhibition at 1 mg/kg [2]: 55%

C[C@H](CC(=O)O)Oc1ccc(F)cc1-c1cnc(C(=O)N2CCC(N3C(=O)C(C)(C)Cc4ncc(Cl)cc43)CC2)c(F)c1 [Example 44, (3R)-3-[2-(6-{[4-(7-Chloro-3,3-dimethyl-2-oxo-3,4-dihydro-1,5-naphthyridin-1(2H)-yl)piperidin-1-yl]carbonyl}-5-fluoropyridin-3-yl)-4-fluorophenoxy]butanoic acid]
IC50 [1]: 3.4 µM
inhibition at 1 mg/kg [2]: 55%

C[C@H](CC(=O)O)Oc1ccc(F)cc1-c1ccc(C(=O)N2CCC(N3C(=O)COc4ncc(Cl)cc43)CC2)c(F)c1 [Example 31, (3R)-3-[(4′-{[4-(7-Chloro-2-oxo-2,3-dihydro-1H-pyrido[2,3-b][1,4]oxazin-1-yl)piperidin-1-yl]carbonyl}-3′,5-difluorobiphenyl-2-yl)oxy]butanoic acid]
IC50 [1]: 18 µM
